Experimental data taken from PubChem BioAssay (NCI).
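Compound exposure: 48 hours, 5 concentrations, 96-well plates. TGI: total growth inhibition.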

Tests used:
Experiment in all cases: NCI anticancer screen, dose series, 48 h
786-0 renal = system: 786-0 renal
A498 renal = system: A498 renal
A549 NSCLC = system: A549 NSCLC
ACHN renal = system: ACHN renal
BT-549 breast = system: BT-549 breast
CAKI-1 renal = system: CAKI-1 renal
CCRF-CEM leukemia = system: CCRF-CEM leukemia
COLO 205 colon = system: COLO 205 colon
DU-145 prostate = system: DU-145 prostate
EKVX NSCLC = system: EKVX NSCLC
HCC-2998 colon = system: HCC-2998 colon
HCT-116 colon = system: HCT-116 colon
HCT-15 colon = system: HCT-15 colon
HL-60(TB) leukemia = system: HL-60(TB) leukemia
HOP-62 NSCLC = system: HOP-62 NSCLC
HOP-92 NSCLC = system: HOP-92 NSCLC
HS 578T breast = system: HS 578T breast
HT29 colon = system: HT29 colon
IGROV1 ovarian = system: IGROV1 ovarian
K-562 leukemia = system: K-562 leukemia
KM12 colon = system: KM12 colon
LOX IMVI melanoma = system: LOX IMVI melanoma
M14 melanoma = system: M14 melanoma
MALME-3M melanoma = system: MALME-3M melanoma
MCF7 breast = system: MCF7 breast
MDA-MB-231 breast = system: MDA-MB-231 breast
MDA-MB-435 = system: MDA-MB-435
MDA-N = system: MDA-N
MOLT-4 leukemia = system: MOLT-4 leukemia
NCI-H226 lung = system: NCI-H226 lung
NCI-H23 lung = system: NCI-H23 lung
NCI-H460 lung = system: NCI-H460 lung
NCI-H522 lung = system: NCI-H522 lung
NCI/ADR-RES ovarian = system: NCI/ADR-RES ovarian
OVCAR-3 ovarian = system: OVCAR-3 ovarian
OVCAR-4 ovarian = system: OVCAR-4 ovarian
OVCAR-5 ovarian = system: OVCAR-5 ovarian
OVCAR-8 ovarian = system: OVCAR-8 ovarian
PC-3 prostate = system: PC-3 prostate
RXF 393 renal = system: RXF 393 renal
SF-268 CNS = system: SF-268 CNS
SF-295 CNS = system: SF-295 CNS
SF-539 CNS = system: SF-539 CNS
SK-MEL-2 melanoma = system: SK-MEL-2 melanoma
SK-MEL-28 melanoma = system: SK-MEL-28 melanoma
SK-MEL-5 melanoma = system: SK-MEL-5 melanoma
SK-OV-3 ovarian = system: SK-OV-3 ovarian
SN12C renal = system: SN12C renal
SNB-19 CNS = system: SNB-19 CNS
SNB-75 CNS = system: SNB-75 CNS
SR leukemia = system: SR leukemia
SW-620 colon = system: SW-620 colon
T-47D breast = system: T-47D breast
TK-10 renal = system: TK-10 renal
U251 CNS = system: U251 CNS
UACC-257 melanoma = system: UACC-257 melanoma
UACC-62 melanoma = system: UACC-62 melanoma
UO-31 renal = system: UO-31 renal
RPMI-8226 leukemia = system: RPMI-8226 leukemia

`CC[C@]12C=CCN3CC[C@@]4(c5cc(N=O)c(OC)cc5N(C)[C@H]4[C@@](O)(C(=O)NC(Cc4c[nH]c5ccccc45)C(=O)OC)[C@@H]1O)[C@@H]32` (stereo partly specified) showed a TGI (786-0 renal) greater than 100 µM, a TGI (A498 renal) greater than 100 µM and a TGI (A549 NSCLC) greater than 100 µM. The TGI (ACHN renal) was 35.5 µM, the TGI (BT-549 breast) was 29.8 µM and the TGI (CAKI-1 renal) was 31.9 µM. For the same compound, the TGI (CCRF-CEM leukemia) was 24.3 µM, the TGI (COLO 205 colon) was 29.2 µM and the TGI (DU-145 prostate) was 30.9 µM. The TGI (EKVX NSCLC) was 52.2 µM, the TGI (HCC-2998 colon) was 29 µM and the TGI (HCT-116 colon) was 28.3 µM. It also gave a TGI (HCT-15 colon) of 44.7 µM, a TGI (HL-60(TB) leukemia) of 14.7 µM and a TGI (HOP-62 NSCLC) of 34.6 µM. The TGI (HOP-92 NSCLC) was 28.8 µM, the TGI (HS 578T breast) was greater than 100 µM and the TGI (HT29 colon) was 29.3 µM. The TGI (IGROV1 ovarian) was 34.9 µM, the TGI (K-562 leukemia) was 31.4 µM and the TGI (KM12 colon) was 26.1 µM. The TGI (LOX IMVI melanoma) was 47 µM, the TGI (M14 melanoma) was 41.1 µM and the TGI (MALME-3M melanoma) was 34.8 µM. It also gave a TGI (MCF7 breast) of 35.2 µM, a TGI (MDA-MB-231 breast) of 34.7 µM and a TGI (MDA-MB-435) of 33.3 µM. For the same compound, the TGI (MDA-N) was 46.6 µM, the TGI (MOLT-4 leukemia) was 27.9 µM and the TGI (NCI-H226 lung) was 52.4 µM. It also gave a TGI (NCI-H23 lung) of 38.5 µM, a TGI (NCI-H460 lung) of 38.7 µM and a TGI (NCI-H522 lung) of 6.75 µM. The TGI (NCI/ADR-RES ovarian) was greater than 100 µM, the TGI (OVCAR-3 ovarian) was 28.6 µM and the TGI (OVCAR-4 ovarian) was 29.2 µM. It also gave a TGI (OVCAR-5 ovarian) of 43.1 µM, a TGI (OVCAR-8 ovarian) of 42.6 µM and a TGI (PC-3 prostate) of 23.9 µM. The TGI (RXF 393 renal) was 26.9 µM, the TGI (SF-268 CNS) was greater than 100 µM and the TGI (SF-295 CNS) was 32.7 µM. The TGI (SF-539 CNS) was 30.5 µM, the TGI (SK-MEL-2 melanoma) was 34.1 µM and the TGI (SK-MEL-28 melanoma) was 86.8 µM. For the same compound, the TGI (SK-MEL-5 melanoma) was 28 µM, the TGI (SK-OV-3 ovarian) was 38.9 µM and the TGI (SN12C renal) was 71.5 µM. For the same compound, the TGI (SNB-19 CNS) was 71.3 µM, the TGI (SNB-75 CNS) was 29.4 µM and the TGI (SR leukemia) was 54.7 µM. The TGI (SW-620 colon) was 29.7 µM, the TGI (T-47D breast) was 32 µM and the TGI (TK-10 renal) was 31.7 µM. For the same compound, the TGI (U251 CNS) was 21.7 µM, the TGI (UACC-257 melanoma) was 29.6 µM and the TGI (UACC-62 melanoma) was 29.6 µM. The TGI (UO-31 renal) was 45.3 µM.

`CO[C@@H]1C[C@H](OC(N)=O)[C@@H]2C=C[C@@H]3/C=C(C)/C=C/[C@@H](C)[C@H]([C@H](C)[C@H](O)[C@@H](C)NC(C)=O)OC(=O)/C=C/C=C(C)\C=C\[C@]3(C)[C@@H]2C1` was tested, and the TGI (786-0 renal) was 6.62 µM, the TGI (A498 renal) was 0.496 µM and the TGI (A549 NSCLC) was 10 µM. The TGI (ACHN renal) was 2.67 µM, the TGI (BT-549 breast) was greater than 28.5 µM and the TGI (CAKI-1 renal) was 2.67 µM. It also gave a TGI (COLO 205 colon) of 11.1 µM, a TGI (DU-145 prostate) of 9.01 µM and a TGI (EKVX NSCLC) of 5.34 µM. For the same compound, the TGI (HCC-2998 colon) was 1.39 µM, the TGI (HCT-116 colon) was 1.25 µM and the TGI (HCT-15 colon) was 6.77 µM. The TGI (HL-60(TB) leukemia) was 3.32 µM, the TGI (HOP-62 NSCLC) was 4.81 µM and the TGI (HOP-92 NSCLC) was less than 0.01 µM. The TGI (HS 578T breast) was 0.264 µM, the TGI (HT29 colon) was 1.93 µM and the TGI (IGROV1 ovarian) was 3.28 µM. The TGI (LOX IMVI melanoma) was less than 0.01 µM, the TGI (M14 melanoma) was 1.62 µM and the TGI (MALME-3M melanoma) was 3.53 µM. The TGI (MCF7 breast) was 11.3 µM, the TGI (MDA-MB-231 breast) was 0.0634 µM and the TGI (MDA-MB-435) was 4.36 µM. The TGI (MDA-N) was 6.03 µM, the TGI (NCI-H226 lung) was less than 0.01 µM and the TGI (NCI-H23 lung) was 13.1 µM. The TGI (NCI-H460 lung) was 1.58 µM, the TGI (NCI-H522 lung) was 1.44 µM and the TGI (NCI/ADR-RES ovarian) was 6.11 µM. It also gave a TGI (OVCAR-3 ovarian) of 3.65 µM, a TGI (OVCAR-4 ovarian) of 9.75 µM and a TGI (OVCAR-5 ovarian) of 9.19 µM. It also gave a TGI (OVCAR-8 ovarian) of 13.6 µM, a TGI (PC-3 prostate) of 10.8 µM and a TGI (RPMI-8226 leukemia) of 3.78 µM. The TGI (RXF 393 renal) was 3.06 µM, the TGI (SF-268 CNS) was 4.95 µM and the TGI (SF-295 CNS) was 1.51 µM. For the same compound, the TGI (SF-539 CNS) was 1.46 µM, the TGI (SK-MEL-2 melanoma) was 7.09 µM and the TGI (SK-MEL-28 melanoma) was 1.84 µM. The TGI (SK-OV-3 ovarian) was 3.66 µM, the TGI (SN12C renal) was 8.72 µM and the TGI (SNB-19 CNS) was 17.7 µM. It also gave a TGI (SR leukemia) of 0.887 µM, a TGI (SW-620 colon) of 10.3 µM and a TGI (T-47D breast) of 11 µM. The TGI (TK-10 renal) was 3.55 µM, the TGI (U251 CNS) was 1.61 µM and the TGI (UACC-257 melanoma) was 3.04 µM. It also gave a TGI (UACC-62 melanoma) of 1.4 µM and a TGI (UO-31 renal) of 0.645 µM.
